# In patent publication US20240398831A1, “COMPOSITIONS COMPRISING SMALL MOLECULE REGULATORS OF TUMOR IMMUNITY AND METHODS OF USING SAME” (Duke University, priority 2021, published 2024):
# Key:
# [1] = system: T cells co-cultured with BMDM; test: T cells co-cultured with bone marrow-derived macrophages (BMDM) polarized to M2; format: cell-based, mouse; details: for proliferation of T cells (CFSE dilution): macrophages differentiated in NM
# Procedure: In vitro bone marrow-derived macrophage differentiation. For this purpose, bone marrow cells were aseptically collected from 8-10 weeks old female C57BL/6J mice by crushing the femurs and tibias in PBS, […] and 2 mM EDTA. Cells were added to ACK buffer to lyse the red blood cells for 2 mins with intermediate vortexing. The solution was filtered through a 40 μm strainer to remove bone fragments. To differentiate bone marrow cells to macrophages the cells were plated in DMEM media (100%) or DMEM media (70%) and 30% tumor-conditioned media, supplemented with 10% heat-inactivated charcoal-stripped serum in the presence of 30 ng/mL MCSF (Cat #312-02, PeproTech). After 3 days cells were supplemented with 50% of respective fresh media. On day 6 the media was removed and replaced with fresh media. […] For polarization, cells were further treated with LIPS (100 ng/mL, Cat L2630, Sigma Aldrich) and IFNγ (20 ng/mL, Cat #315-05, PeproTech) (24 hr) for M1 polarization or IL4 (10 ng/mL, cat #214-14, PeproTech) for M2 polarization.
# T cell proliferation assay and staining. CD3+ T cells were isolated from the spleens of C57BL/6J or P-mel mice with magnetic bead-based T cell isolation kit (Cat #19851, StemCell Technologies). T cells from naïve mice were stained with 5 μM CFSE (Cat #C34554, ThermoFisher Scientific) for 5 minutes in PBS+5% CFS with rapid vortexing following which the cells were washed twice with PBS. Stained T cells were then counted and plated in 96-well plates coated with anti-CD3 antibody (0.5 μg/mL, Cat #19851, ThermoFisher Scientific) anti-CD28 antibody (1 μg/mL, Cat #16-0281-86, Thermo Fisher Scientific) at desired density (250,000 T cells/50,000 CD11b or BMDM) in the presence of IL2 (50 ng/mL) (Cat #212-12, PeproTech). 72 hr after plating the cells were incubated with protein transport inhibitors brefeldin (Cat #00-4506-51, Thermo Fisher Scientific) and monensin (Cat #00-4505-51, Thermo Fisher Scientific) for 6 hr at a final concentration of 2 μM monensin and 3 μg/mL brefeldin after which they were collected and were processed for staining for flow cytometry.
# Of note, no changes in the percentage of Ly6C+/Ly6G+ MDSCs in tumors between the two treatment conditions were observed (FIG. 10D). […] The addition of tumor conditioned media allows the TME to be partially mimicked where tumor derived factors influence the differentiation and polarization of macrophages. […] The polarized macrophages were subsequently co-cultured with sub-optimally activated T cells (CD3/CD28 and IL2) isolated from spleens of non-tumor bearing mice, for 72 hr following which they were treated with protein transport inhibitors (monensin and brefeldin) for 6 hr to prevent release of cytokines and chemokines.
# [2] = system: BPD6 tumors; test: BPD6 syngeneic melanoma tumor model in ovariectomized mice (tumor growth, flow cytometry); format: in vivo, mouse
# Source text: FIGS. 18E-18G show quantification of M1 macrophages (MHCII^hi CD206^−ive), GZMB^+CD8^+ T cells, and PD1^+CD8^+ T cells in YuMM5.2 tumors from FIG. 18C (n=4). […] Vehicle+IgG (n=10, red), fulvestrant+IgG (n=15, blue), vehicle+ICB (n=15, black), and fulvestrant+ICB (n=15, brown). Black arrow indicates start of ICB treatment regimen. […] Vehicle+IgG (n=9, red), fulvestrant+IgG (n=8, blue), vehicle+ICB (n=9, black), and fulvestrant+ICB (n=10, brown). Black arrow indicates start of anti-PD1 treatment regimen. […] FIGS. 18A-18C are representative of two individual experiments. Data are expressed as mean 3 S.E.M. Significance was calculated by one-way ANOVA followed by Bonferroni's multiple correction (FIG. 18K), by Student's t test (FIG. 18L), and by log rank test (FIG. 18M) (*p<0.05, **p<0.01, and ***p<0.001).
# Tumor models and cells. The mouse B16F10 and Yumm5.2 cell lines were purchased from American Type Culture Collection (ATCC, Manassas, VA). The mouse melanoma cell line BPD6 was established from iBP as described elsewhere (Zhao et al., Immunity 2018, 48, 147-160). B16F10 and BPD6 cells were maintained in Dulbecco's Modified Eagle's Medium (DMEM) supplemented with 8% fetal bovine serum (FBS), 0.1 mM non-essential amino acids (NEAA) and 1 mM sodium pyruvate. YuMM5.2 cells were maintained in DMEM/F12 media supplemented with 10% FBS. The cells were replated 3 times/week at a confluency of 1:10 and were kept in a 37° C. incubator at 5% CO2. For subcutaneous tumor models B16F10 (5×10^4 or 1×10^5), YuMM5.2 (5×10^5), and BPD6 (5×10^5) cells were injected into the right flank of the mice. For iBP mice, tumors were induced with a single intradermal dose of 4-hydroxytamoxifen in DMSO (150 μg/mouse). Tumors were measured thrice weekly using an electronic caliper. Tumor volumes were calculated by the formula V=L×(W×W)/2. For iBP mouse tumors, volumes were calculated by the formula V=L×B×H. For tumor growth rate studies mice were euthanized when the tumors reached a maximum size of 2000 mm^3.
# Ovarlectomy and subcutaneous pellet Insertion. Ovariectomy was performed as previously described (Nelson et al., Science 2013, 342, 1094-1098). Eight days prior to tumor inoculation, 7 weeks old C57BL/6J or 5 weeks old (iBP) female mice were subjected to ovariectomy or sham surgery. Mice were anesthetized in an inhalation chamber (2% Isoflurane) and maintained in half the dose of isoflurane (1%) via nose cone throughout the surgical process. Prior to surgery, mice were administered a 5 mg/kg dose of carprofen subcutaneously. The area below the ribs was shaved with an electronic razor and the skin was sterilized by rubbing with betadine and alcohol (3× alternating). A horizontal incision was made through the skin above the ovary fat pad, followed by a vertical incision through the abdominal muscle wall. The ovary was externalized and removed using a cauterizing scissors (or returned if sham). Fat pad was replaced, and muscle walls were opposed and sutured (1-2 stitches). Following suturing, 1 drop of bupivacaine (0.25%) was added on top of the incision site. The skin was opposed, and a wound clip was placed on the incision site. This was repeated for the other ovary. The mouse was then removed from anesthesia and kept in a clean cage and monitored until conscious. The mice were monitored for recovery for 10 days.
# Fulvestrant treatment Mice were injected with fulvestrant (Cat #HY-13636 MedChemExpress) 2 days after tumor injection at a dose of 25 mg/kg via intramuscular route. […]
Molecule,"proliferation of T cells (CFSE) ([1]; BMDM from Esr1^f/f and Esr1^f/f, LysMCre differentiated in NM, DMSO or E2)",T cell proliferation (CFSE dilution) ([1]; macrophages differentiated in 30% TCM and E2),proliferation of T cells (CFSE dilution) ([1]; E2),"expression of GZMB and IFNγ in T cells ([1]; macrophages differentiated in TCM, E2 1 nM vs DMSO)","expression of IFNγ and GZMB in T cells ([1]; macrophages in normal media (NM), E2 1 nM)","tumor growth ([2]; E2 vs placebo, ovariectomized C57BL/6J)","percentage of Ly6C+/Ly6G+ MDSCs in tumors ([2]; flow cytometry, E2 vs placebo)","E2-induced suppression of T cell proliferation ([1]; macrophages differentiated in 30% TCM, E2 (1 nM)+fulvestrant (100 nM))",proliferation of T cells (CFSE dilution) ([1]; E2+fulvestrant),intratumoral M1/M2 ratio ([2]; E2 treated mice co-treated with fulvestrant),"tumor growth ([2]; PD1 sensitive model, fulvestrant alone)","tumor growth ([2]; fulvestrant 25 mg/kg, E2 supplemented mice)"
17β-estradiol [E2],No difference,effectively suppressed,not affected,decreased expression,did not display any change,significantly increased,no changes,–,–,–,–,–
C[C@]12CC[C@@H]3c4ccc(O)cc4C[C@@H](CCCCCCCCC[S+]([O-])CCCC(F)(F)C(F)(F)F)[C@H]3[C@@H]1CC[C@@H]2O (stereo partly drawn) [fulvestrant],–,–,–,–,–,–,–,reversed,not affected,increase,slows tumor growth,significantly reduced
